# From US8722703B2, “Fused amino pyridines for the treatment of brain tumors” (Curis, Inc., priority 2009, dated 2014)
# pIC50: −log10 of the molar value.
# What was measured:
# [1] = biological target: HSP90 (Homo sapiens, UniProt P07900); assay: HSP90 competition binding (fluorescence polarization) assay
# From the text: (b) HSP90 Competition Binding (Fluorescence Polarization) Assay.
# A fluorescein isothiocyanate (FITC) labeled GM was purchase from InvivoGen (ant-fgl-1). The interaction between HSP90 and labeled GM forms the basis for the fluorescence polarization assay. A free and fast-tumbling FITC labeled GM emits random light with respect to the plane of polarization plane of excited light, resulting in a lower polarization degree (mP) value. When GM is bound to HSP90, the complex tumble slower and the emitted light is polarized, resulting in a higher mP value. […] The assay buffer contained 20 mM HEPES (pH 7.3), 50 mM KCl, 1 mM DTT, 50 mM MgCl2, 20 mM Na2MoO4, 0.01% NP40 with 0.1 mg/ml bovine gamma-globulin.
# [2] = Mouse brain concentrations after oral 30 mg/Kg in nude mice with U87MG xenografts; type: in vivo; conditions: oral (30 mg/Kg) delivery, U87MG xenografts; for concentration at 0 hr / concentration at 0.5 hr / concentration at 1 hr / concentration at 3 hr / concentration at 6 hr / concentration at 24 hr: female, athymic nude (CD-1 nu/nu), mouse, brain, read-out: HSP90 Compounds in Mouse Brain
# [3] = test system: H1975 orthotopic lung tumor; assay: Efficacy study in the H1975 orthotopic lung tumor (NSCLC) model; type: in vivo, nude mice; conditions: Compound-15 120 mg/kg orally once every two days, erlotinib 50 mg/kg orally once a day, 5 wk
# Protocol: Dose-dependent efficacy study of Compound-15 in H1975 orthotopic lung tumor model (n=11): Mice were treated with Compound-15 (20, 40, 80, and 120 mg/kg) starting 4 day after tumor implantation.
# [4] = test system: A549 orthotopic lung tumor; assay: Efficacy study in A549 orthotopic lung tumor model; type: in vivo, nude mice; conditions: Compound-15 120 mg/kg orally once every two days, erlotinib 50 mg/kg orally once a day, 4 wk
# [5] = test system: H1975 intracranial tumor; assay: Efficacy study in H1975 intracranial metastasis model; type: in vivo, nude mice; conditions: Compound-15 120 mg/kg orally once every two days, lapatinib 75 mg/kg orally twice a day, 4 wk
Structure (SMILES),pIC50 [1],concentration at 0 hr [2] [ng/g],concentration at 0.5 hr [2] [ng/g],concentration at 1 hr [2] [ng/g],concentration at 3 hr [2] [ng/g],concentration at 6 hr [2] [ng/g],concentration at 24 hr [2] [ng/g],AUC in mouse brain [2] [ng·h/g],further results
CC(C)(C)CNCCCn1c(Sc2cc3c(cc2Br)OCO3)nc2c(N)nccc21 [Compound 10],6.00 to 7.00,–,–,–,–,–,–,–,–
"CC(C)(C)CNCCCn1c(Sc2cc3c(cc2I)OCO3)nc2c(N)nccc21 [Compound 11, 2-(6-iodobenzo[d][1,3]dioxol-5-ylthio)-1-(3-(neopentylamino)propyl)-1H-imidazo[4,5-c]pyridin-4-amine]",6.00 to 7.00,–,–,–,–,–,–,–,–
"C#Cc1cccc(Nc2ncnc3cc(OCCOC)c(OCCOC)cc23)c1 [erlotinib, reference compound]",–,–,–,–,–,–,–,–,animal survival [3]: no therapeutic benefit; animal survival [4]: no antitumor effect
"CS(=O)(=O)CCNCc1ccc(-c2ccc3ncnc(Nc4ccc(OCc5cccc(F)c5)c(Cl)c4)c3c2)o1 [lapatinib, reference compound]",–,–,–,–,–,–,–,–,animal survival [5]: lack of lapatinib efficacy

# Further lines, with some results ahead:
pIC50 [1],concentration at 0 hr [2] [ng/g],concentration at 0.5 hr [2] [ng/g],concentration at 1 hr [2] [ng/g],concentration at 3 hr [2] [ng/g],concentration at 6 hr [2] [ng/g],concentration at 24 hr [2] [ng/g],AUC in mouse brain [2] [ng·h/g],Structure (SMILES),further results
–,0,2.5,2.2,3.7,0.9,1.3,36.7,NC(=O)CCCn1c(Sc2cc3c(cc2I)OCO3)nc2c(N)nccc21 [Compound 22],–
–,0,5.4,13.6,21.5,9.1,3,231.8,CC(C)(C)CNCCn1c(Sc2cc3c(cc2S(C)(=O)=O)OCO3)nc2c(N)nccc21 [Compound 23],–
